Assay: head-to-tail lactamisation of free linear peptides (H-/-OH), DEPBT (2 equiv), iPr2EtN (2 equiv)
Details: DMF, 1.0 mM, 25.0 °C

CC(C)C[C@@H]1NC(=O)[C@H](Cc2ccc(O)cc2)NC(=O)[C@H](C)NC(=O)C(C)(C)NC(=O)[C@H](C)NC1=O [H-Leu-Ala-Aib-Ala-Tyr-OH]
ring closure, isolated yield (from CC(C)C[C@H](N)C(=O)N[C@@H](C)C(=O)NC(C)(C)C(=O)N[C@@H](C)C(=O)N[C@@H](Cc1ccc(O)cc1)C(=O)O, 15-membered ring, 24.0 h): 29%

CC(C)C[C@@H]1NC(=O)[C@H](Cc2c[nH]c3ccccc23)NC(=O)CNC2(CNC1=O)COC2 [H-Trp-Leu-GOx-Gly-OH]
ring closure, isolated yield (from CC(C)C[C@H](NC(=O)[C@@H](N)Cc1c[nH]c2ccccc12)C(=O)NCC1(NCC(=O)O)COC1, 12-membered ring, 48.0 h): 65%

CC(C)C[C@@H]1NC(=O)[C@H](Cc2ccc(O)cc2)NC(=O)[C@@H]2CCCN2C2(CNC(=O)[C@H](C)NC1=O)COC2 [H-Leu-Ala-GOx-Pro-Tyr-OH]
ring closure, isolated yield (from CC(C)C[C@H](N)C(=O)N[C@@H](C)C(=O)NCC1(N2CCC[C@H]2C(=O)N[C@@H](Cc2ccc(O)cc2)C(=O)O)COC1, 15-membered ring, 48.0 h): 48%

CC(C)C[C@@H]1NC(=O)[C@H](Cc2ccc(O)cc2)NC(=O)[C@H](C)NCCNC(=O)[C@H](C)NC1=O [H-Leu-Ala-NHCH2CH2-Ala-Tyr-OH]
ring closure, isolated yield (from CC(C)C[C@H](N)C(=O)N[C@@H](C)C(=O)NCCN[C@@H](C)C(=O)N[C@@H](Cc1ccc(O)cc1)C(=O)O, 15-membered ring, 24.0 h): 28%

CC(C)C[C@@H]1NC(=O)[C@H](Cc2ccc(O)cc2)NC(=O)[C@H](C)NC(=O)CNC(=O)[C@H](C)NC1=O [H-Leu-Ala-Gly-Ala-Tyr-OH]
ring closure, isolated yield (from CC(C)C[C@H](N)C(=O)N[C@@H](C)C(=O)NCC(=O)N[C@@H](C)C(=O)N[C@@H](Cc1ccc(O)cc1)C(=O)O, 15-membered ring, 24.0 h): 31%

CC(C)C[C@@H]1NC(=O)[C@H](Cc2ccccc2)NC(=O)[C@H]([C@@H](C)OC(C)(C)C)NC2(CNC(=O)[C@H](C(C)C)NC(=O)[C@H](Cc3ccc(OC(C)(C)C)cc3)NC1=O)COC2 [H-Leu-Tyr(tBu)-Val-GOx-Thr(tBu)-Phe-OH]
ring closure, isolated yield (from CC(C)C[C@H](N)C(=O)N[C@@H](Cc1ccc(OC(C)(C)C)cc1)C(=O)N[C@H](C(=O)NCC1(N[C@H](C(=O)N[C@@H](Cc2ccccc2)C(=O)O)[C@@H](C)OC(C)(C)C)COC1)C(C)C, 18-membered ring, 48.0 h): 58%

CC(C)C[C@@H]1NC(=O)[C@H]2CCCN2C(=O)CNC(=O)CNC1=O [H-D-Pro-Leu-Gly-Gly-OH]
ring closure, isolated yield (from CC(C)C[C@H](NC(=O)[C@H]1CCCN1)C(=O)NCC(=O)NCC(=O)O, 12-membered ring, 48.0 h): 0%

CC(C)C[C@@H]1NC(=O)[C@H](CC(=O)OC(C)(C)C)NC(=O)CNC(=O)CNC1=O [H-Asp(tBu)-Leu-Gly-Gly-OH]
ring closure, isolated yield (from CC(C)C[C@H](NC(=O)[C@@H](N)CC(=O)OC(C)(C)C)C(=O)NCC(=O)NCC(=O)O, 12-membered ring, 48.0 h): 14%

CC(C)C[C@@H]1NC(=O)[C@H](Cc2ccc(O)cc2)NC(=O)[C@H](C)NC(=O)CNC(=O)[C@H](C)NC1=O [H-Gly-Ala-Tyr-Leu-Ala-OH]
ring closure, isolated yield (from CC(C)C[C@H](NC(=O)[C@H](Cc1ccc(O)cc1)NC(=O)[C@H](C)NC(=O)CN)C(=O)N[C@@H](C)C(=O)O, 15-membered ring): 30%

CC(C)C[C@@H]1NC(=O)[C@H](Cc2ccc(O)cc2)NC(=O)[C@H](C)NC2(CNC(=O)[C@H](C)NC1=O)COC2 [H-Tyr-Leu-Ala-GOx-Ala-OH]
ring closure, isolated yield (from CC(C)C[C@H](NC(=O)[C@@H](N)Cc1ccc(O)cc1)C(=O)N[C@@H](C)C(=O)NCC1(N[C@@H](C)C(=O)O)COC1, 15-membered ring, 24.0 h): 31%

CC(C)C[C@@H]1NC(=O)[C@H](Cc2c[nH]c3ccccc23)NC(=O)CNC(=O)CNC1=O [H-Trp-Leu-Gly-Gly-OH]
ring closure, isolated yield (from CC(C)C[C@H](NC(=O)[C@@H](N)Cc1c[nH]c2ccccc12)C(=O)NCC(=O)NCC(=O)O, 12-membered ring, 48.0 h): 15%

CC(C)C[C@@H]1NC(=O)[C@H](Cc2ccc(O)cc2)NC(=O)[C@H](C)NC2(CNC(=O)[C@H](C)NC1=O)COC2 [H-GOx-Ala-Tyr-Leu-Ala-OH]
ring closure, isolated yield (from CC(C)C[C@H](NC(=O)[C@H](Cc1ccc(O)cc1)NC(=O)[C@H](C)NC1(CN)COC1)C(=O)N[C@@H](C)C(=O)O, 15-membered ring, 24.0 h): 43%

CC(C)C[C@@H]1NC(=O)[C@H](Cc2ccc(O)cc2)NC(=O)[C@H](C)NC2(CNC(=O)[C@H](C)NC1=O)COC2 [H-Leu-Ala-GOx-Ala-Tyr-OH]
ring closure, isolated yield (from CC(C)C[C@H](N)C(=O)N[C@@H](C)C(=O)NCC1(N[C@@H](C)C(=O)N[C@@H](Cc2ccc(O)cc2)C(=O)O)COC1, 15-membered ring, 24.0 h): 51%

CC(C)C[C@@H]1NC(=O)[C@H](Cc2ccc(O)cc2)NC(=O)[C@@H]2CCCN2C(=O)CNC(=O)[C@H](C)NC1=O [H-Leu-Ala-Gly-Pro-Tyr-OH]
ring closure, isolated yield (from CC(C)C[C@H](N)C(=O)N[C@@H](C)C(=O)NCC(=O)N1CCC[C@H]1C(=O)N[C@@H](Cc1ccc(O)cc1)C(=O)O, 15-membered ring): 13%

CC(C)C[C@@H]1NC(=O)[C@H](Cc2ccc(O)cc2)NC(=O)[C@H](C)NC2(CNC(=O)[C@H](C)NC1=O)COC2 [H-Ala-GOx-Ala-Tyr-Leu-OH]
ring closure, isolated yield (from CC(C)C[C@H](NC(=O)[C@H](Cc1ccc(O)cc1)NC(=O)[C@H](C)NC1(CNC(=O)[C@H](C)N)COC1)C(=O)O, 15-membered ring, 24.0 h): 57%

CC(C)C[C@@H]1NC(=O)[C@H]2CCCN2C(=O)CNC2(CNC1=O)COC2 [H-D-Pro-Leu-GOx-Gly-OH]
ring closure, isolated yield (from CC(C)C[C@H](NC(=O)[C@H]1CCCN1)C(=O)NCC1(NCC(=O)O)COC1, 12-membered ring, 48.0 h): 54%

CC(C)C[C@@H]1NC(=O)[C@H](Cc2ccc(O)cc2)NC(=O)[C@H](C)NC(=O)CN(C)C(=O)[C@H](C)NC1=O [H-Leu-Ala-Sar-Ala-Tyr-OH]
ring closure, isolated yield (from CC(C)C[C@H](N)C(=O)N[C@@H](C)C(=O)N(C)CC(=O)N[C@@H](C)C(=O)N[C@@H](Cc1ccc(O)cc1)C(=O)O, 15-membered ring, 24.0 h): 36%

CC(C)C[C@@H]1NC(=O)[C@H](Cc2ccc(O)cc2)NC(=O)[C@H](C)NC(=O)CCNC(=O)[C@H](C)NC1=O [H-Leu-Ala-βAla-Ala-Tyr-OH]
ring closure, isolated yield (from CC(C)C[C@H](N)C(=O)N[C@@H](C)C(=O)NCCC(=O)N[C@@H](C)C(=O)N[C@@H](Cc1ccc(O)cc1)C(=O)O, 16-membered ring, 24.0 h): 39%

CC(C)C[C@@H]1NC(=O)[C@H](CC(=O)OC(C)(C)C)NC(=O)CNC2(CNC1=O)COC2 [H-Asp(tBu)-Leu-GOx-Gly-OH]
ring closure, isolated yield (from CC(C)C[C@H](NC(=O)[C@@H](N)CC(=O)OC(C)(C)C)C(=O)NCC1(NCC(=O)O)COC1, 12-membered ring, 48.0 h): 49%

CC(C)C[C@@H]1NC(=O)[C@H](Cc2c[nH]c3ccccc23)NC(=O)CNC(=O)[C@H](C)NC1=O [H-Trp-Leu-Ala-Gly-OH]
ring closure, isolated yield (from CC(C)C[C@H](NC(=O)[C@@H](N)Cc1c[nH]c2ccccc12)C(=O)N[C@@H](C)C(=O)NCC(=O)O, 12-membered ring, 48.0 h): 21%

CC(C)C[C@@H]1NC(=O)[C@H](Cc2ccc(O)cc2)NC(=O)[C@H](C)NC(=O)CNC(=O)[C@H](C)NC1=O [H-Tyr-Leu-Ala-Gly-Ala-OH]
ring closure, isolated yield (from CC(C)C[C@H](NC(=O)[C@@H](N)Cc1ccc(O)cc1)C(=O)N[C@@H](C)C(=O)NCC(=O)N[C@@H](C)C(=O)O, 15-membered ring): 24%

CC(C)C[C@@H]1NC(=O)[C@H](Cc2c[nH]c3ccccc23)NC(=O)CNC2(COC2)[C@H](C)NC1=O [H-Trp-Leu-AOx-Gly-OH]
ring closure, isolated yield (from CC(C)C[C@H](NC(=O)[C@@H](N)Cc1c[nH]c2ccccc12)C(=O)N[C@@H](C)C1(NCC(=O)O)COC1, 12-membered ring, 48.0 h): 50%

CC(C)C[C@@H]1NC(=O)[C@H](Cc2ccc(O)cc2)NC(=O)[C@H](C)NC(=O)CNC(=O)[C@H](C)NC1=O [H-Ala-Gly-Ala-Tyr-Leu-OH]
ring closure, isolated yield (from CC(C)C[C@H](NC(=O)[C@H](Cc1ccc(O)cc1)NC(=O)[C@H](C)NC(=O)CNC(=O)[C@H](C)N)C(=O)O, 15-membered ring, 24.0 h): 40%

CC(C)C[C@@H]1NC(=O)[C@H](Cc2ccc(O)cc2)NC(=O)[C@H](C)NC(C)(C)CNC(=O)[C@H](C)NC1=O [H-Leu-Ala-NHCH2C(Me)2-Ala-Tyr-OH]
ring closure, isolated yield (from CC(C)C[C@H](N)C(=O)N[C@@H](C)C(=O)NCC(C)(C)N[C@@H](C)C(=O)N[C@@H](Cc1ccc(O)cc1)C(=O)O, 15-membered ring, 24.0 h): 32%
